Laboratory results as given in the supplement of paper PMC4862054.

What was measured:
Settings in all cases: incubation time: 72 h
[1] = system: DU-4475; test: drug sensitivity score (DSS), CellTiter-Glo (DSS (AUC-based score)); higher = stronger drug effect (viability inhibition or cytotoxicity); extreme values may be limits of the assay
Procedure, shortened: (§1)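 Breast cancer cells were seeded into 384-well plates containing compound at 5 concentrations in 10-fold steps over a compound-specific 10,000-fold range and incubated 72 h. After CellTox Green and CellTiter-Glo readings, each plate was normalised to 0.1 % DMSO and a positive kill control. The drug sensitivity score rests on the area under the fitted dose-response curve.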

[2] = system: BT-474; test: as above
Procedure, shortened: as §1

[3] = system: HDQ-P1; test: as above
Procedure, shortened: as §1

[4] = system: Hs578T; test: as above
Procedure, shortened: as §1

[5] = system: SK-BR-3; test: as above
Procedure, shortened: as §1

[6] = system: CAL-51; test: as above
Procedure, shortened: as §1

[7] = system: HCC1599; test: as above
Procedure, shortened: as §1

[8] = system: MDA-MB-231; test: as above
Procedure, shortened: as §1

[9] = system: CAL-120; test: as above
Procedure, shortened: as §1

[10] = system: CAL-85-1; test: as above
Procedure, shortened: as §1

[11] = system: BT-474; test: normalised viability (% of control), CellTiter-Blue; higher = more viable cells (about 100 = DMSO control)
Procedure, shortened: (§2)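 Plates were quality-checked by Z'-factor and normalised to vehicle (100) and a positive kill control (0). The underlying assay incubated breast cancer cell lines for 72 h on 384-well plates with compound, then added 2.5 µl CellTiter-Blue for 2 h at 37 °C and read at 560/590 nm. The value is normalised viability at a single listed concentration of the series.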

[12] = system: HDQ-P1; test: as above
Procedure, shortened: as §2

[13] = system: MDA-MB-468; test: as above
Procedure, shortened: as §2

[14] = system: Hs578T; test: as above
Procedure, shortened: as §2

[15] = system: SK-BR-3; test: as above
Procedure, shortened: as §2

[16] = system: CAL-148; test: as above
Procedure, shortened: as §2

[17] = system: CAL-51; test: as above
Procedure, shortened: as §2

[18] = system: HCC1143; test: as above
Procedure, shortened: as §2

[19] = system: HCC1937; test: as above
Procedure, shortened: as §2

[20] = system: HCC1599; test: as above
Procedure, shortened: as §2

[21] = system: MDA-MB-231; test: as above
Procedure, shortened: as §2

[22] = system: CAL-120; test: as above
Procedure, shortened: as §2

[23] = system: MFM-223; test: as above
Procedure, shortened: as §2

[24] = system: CAL-85-1; test: as above
Procedure, shortened: as §2

## CCCCCCCCCCCCCCCCCCOP(=O)([O-])OC1CC[N+](C)(C)CC1 [Perifosine]
[1]
  drug sensitivity score: 0
[2]
  drug sensitivity score: 0
[3]
  drug sensitivity score: 0
[4]
  drug sensitivity score: 0
[5]
  drug sensitivity score: 0
[6]
  drug sensitivity score: 0
[7]
  drug sensitivity score: 0
[8]
  drug sensitivity score: 0
[9]
  drug sensitivity score: 0
[10]
  drug sensitivity score: 0

## C=C(c1ccc(C(=O)O)cc1)c1cc2c(cc1C)C(C)(C)CCC2(C)C [Bexarotene]
[11]; 10 nM
  normalised viability: 103%
[11]; 1000 nM
  normalised viability: 95.7%
[11]; 10000 nM
  normalised viability: 97.7%
[12]; 3 nM
  normalised viability: 89.3%
[12]; 30 nM
  normalised viability: 84.9%
[12]; 100 nM
  normalised viability: 102%
[13]; 10 nM
  normalised viability: 108%
[13]; 1000 nM
  normalised viability: 100%
[13]; 10000 nM
  normalised viability: 110%
[14]; 10 nM
  normalised viability: 99%
[14]; 1000 nM
  normalised viability: 105%
[14]; 10000 nM
  normalised viability: 75.3%
[15]; 10 nM
  normalised viability: 100%
[15]; 1000 nM
  normalised viability: 89.8%
[15]; 10000 nM
  normalised viability: 83.1%
[16]; 3 nM
  normalised viability: 110%
[16]; 30 nM
  normalised viability: 92.7%
[16]; 100 nM
  normalised viability: 99.8%
[17]; 3 nM
  normalised viability: 82%
[17]; 30 nM
  normalised viability: 88.7%
[17]; 100 nM
  normalised viability: 88.5%
[18]; 10 nM
  normalised viability: 123%
[18]; 1000 nM
  normalised viability: 117%
[18]; 10000 nM
  normalised viability: 104%
[19]; 10 nM
  normalised viability: 82.3%
[19]; 1000 nM
  normalised viability: 82.2%
[19]; 10000 nM
  normalised viability: 82.1%
[20]; 10 nM
  normalised viability: 81.2%
[20]; 1000 nM
  normalised viability: 72.2%
[20]; 10000 nM
  normalised viability: 82.1%
[21]; 10 nM
  normalised viability: 91.2%
[21]; 1000 nM
  normalised viability: 86.5%
[21]; 10000 nM
  normalised viability: 105%
[22]; 10 nM
  normalised viability: 101%
[22]; 1000 nM
  normalised viability: 108%
[22]; 10000 nM
  normalised viability: 106%
[23]; 10 nM
  normalised viability: 101%
[23]; 1000 nM
  normalised viability: 103%
[23]; 10000 nM
  normalised viability: 96.5%
[24]; 3 nM
  normalised viability: 94.9%
[24]; 30 nM
  normalised viability: 91.6%
[24]; 100 nM
  normalised viability: 92%
[1]
  drug sensitivity score: 0
[2]
  drug sensitivity score: 1.51
[3]
  drug sensitivity score: 0
[4]
  drug sensitivity score: 0
[5]
  drug sensitivity score: 2.44
[6]
  drug sensitivity score: 0
[7]
  drug sensitivity score: 9
[8]
  drug sensitivity score: 0
[9]
  drug sensitivity score: 0
[10]
  drug sensitivity score: 0

## O=P1(NCCCl)OCCCN1CCCl (centres undefined) [Ifosfamide]
[11]; 10 nM
  normalised viability: 114%
[11]; 1000 nM
  normalised viability: 112%
[11]; 10000 nM
  normalised viability: 120%
[12]; 3 nM
  normalised viability: 94%
[12]; 30 nM
  normalised viability: 93.9%
[12]; 100 nM
  normalised viability: 103%
[13]; 10 nM
  normalised viability: 110%
[13]; 1000 nM
  normalised viability: 120%
[13]; 10000 nM
  normalised viability: 103%
[14]; 10 nM
  normalised viability: 102%
[14]; 1000 nM
  normalised viability: 102%
[14]; 10000 nM
  normalised viability: 115%
[15]; 10 nM
  normalised viability: 109%
[15]; 1000 nM
  normalised viability: 117%
[15]; 10000 nM
  normalised viability: 97.8%
[16]; 3 nM
  normalised viability: 89.8%
[16]; 30 nM
  normalised viability: 92%
[16]; 100 nM
  normalised viability: 93%
[17]; 3 nM
  normalised viability: 114%
[17]; 30 nM
  normalised viability: 110%
[17]; 100 nM
  normalised viability: 107%
[18]; 10 nM
  normalised viability: 80.1%
[18]; 1000 nM
  normalised viability: 82.4%
[18]; 10000 nM
  normalised viability: 91.1%
[19]; 10 nM
  normalised viability: 84%
[19]; 1000 nM
  normalised viability: 74.6%
[19]; 10000 nM
  normalised viability: 97.6%
[20]; 10 nM
  normalised viability: 100%
[20]; 1000 nM
  normalised viability: 93.9%
[20]; 10000 nM
  normalised viability: 89.7%
[21]; 10 nM
  normalised viability: 101%
[21]; 1000 nM
  normalised viability: 97.3%
[21]; 10000 nM
  normalised viability: 109%
[22]; 10 nM
  normalised viability: 88.7%
[22]; 1000 nM
  normalised viability: 99.3%
[22]; 10000 nM
  normalised viability: 85.2%
[23]; 10 nM
  normalised viability: 87.1%
[23]; 1000 nM
  normalised viability: 91.6%
[23]; 10000 nM
  normalised viability: 97.3%
[24]; 3 nM
  normalised viability: 88.3%
[24]; 30 nM
  normalised viability: 89.1%
[24]; 100 nM
  normalised viability: 95.7%
[1]
  drug sensitivity score: 0
[2]
  drug sensitivity score: 0.0144
[3]
  drug sensitivity score: 0
[4]
  drug sensitivity score: 0
[5]
  drug sensitivity score: 0
[6]
  drug sensitivity score: 0
[7]
  drug sensitivity score: 0
[8]
  drug sensitivity score: 0
[9]
  drug sensitivity score: 0
[10]
  drug sensitivity score: 0
